Test results published in patent US10251891B2, “Aprepitant oral liquid formulations” (InnoPharma, Inc., priority 2014, dated 2019).

Test: Solubility of aprepitant in water
Format: physicochemical
Source text: Moreover, it should be recognized that the particle size of the active pharmaceutical ingredient may have important effects on the bioavailability of a formulation. Smaller particle sizes often have increased surface area and will thus dissolve faster than larger particles. However, decreasing the particle size will often increase agglomeration of the particles, and an increased surface area of smaller particles can result in faster degradation of the compound, e.g., due to oxidation and/or hydrolysis. The inventors have now found out that a fine particle size, and especially an average particle size between 0.250 and 0.400 micron, could achieve a desirable bioavailability (typically identical to that of commercially available solid oral aprepitant, EMEND). Such particle size may preferably be achieved using air-jet milling, ball milling, or mortar milling.

Q: With `C[C@@H](O[C@H]1OCCN(Cc2n[nH]c(=O)[nH]2)[C@H]1c1ccc(F)cc1)c1cc(C(F)(F)F)cc(C(F)(F)F)c1` [Aprepitant, 5-([(2R,3S)-2-((R)-1-[3,5-bis(trifluoromethyl)phenyl]ethoxy)-3-(4-fluoro-phenyl)morpholino]methyl)-1H-1,2,4-triazol-3(2H)-one] as the compound, how does the solubility in water read?
A: practically insoluble in water
